From the supplement of paper PMC10307832

Key:
Test in all cases: relative viability (nuclei count vs DMSO), 5 days (fraction); higher = more cells survive
[1] = test system: SK-MES-1
Summary of the method: (§1)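 Each reported value is a median over duplicate plates. It expresses relative viability: treated-well nuclei count divided by vehicle-well nuclei count. Lung cancer cell lines in 1536-well plates were dosed by pin tool a day after seeding, alone with one drug or with a fixed anchor-drug dose plus five library-drug doses (not always all listed) in √10 steps, and nuclei were counted after 5 days.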

[2] = test system: NCI-H441
Summary of the method: as §1

[3] = test system: NCI-H2170
Summary of the method: as §1

[4] = test system: NCI-H1734
Summary of the method: as §1

[5] = test system: ChaGo-K-1
Summary of the method: as §1

[6] = test system: NCI-H1755
Summary of the method: as §1

[7] = test system: NCI-H23
Summary of the method: as §1

[8] = test system: LOU-NH91
Summary of the method: as §1

[9] = test system: LK-2
Summary of the method: as §1

[10] = test system: NCI-H1792
Summary of the method: as §1

[11] = test system: COR-L 105
Summary of the method: as §1

[12] = test system: EMC-BAC-2
Summary of the method: as §1

[13] = test system: EKVX
Summary of the method: as §1

[14] = test system: H3255
Summary of the method: as §1

[15] = test system: PC-3 [JPC-3]
Summary of the method: as §1

[16] = test system: NCI-H1975
Summary of the method: as §1

[17] = test system: NCI-H1563
Summary of the method: as §1

[18] = test system: NCI-H520
Summary of the method: as §1

[19] = test system: A-427
Summary of the method: as §1

[20] = test system: NCI-H1666
Summary of the method: as §1

[21] = test system: NCI-H596
Summary of the method: as §1

[22] = test system: HCC-366
Summary of the method: as §1

`NC(=O)Nc1cc(-c2cccc(F)c2)sc1C(=O)N[C@H]1CCCNC1` [AZD7762] + CS(=O)(=O)N1CCN(Cc2cc3nc(-c4cccc5[nH]ncc45)nc(N4CCOCC4)c3s2)CC1 [Pictilisib] (partner 1 µM) was tested, and the relative viability ([1]; first compound 0.01 µM) was 0.353, the relative viability ([1]; first compound 0.03162 µM) was 0.322 and the relative viability ([1]; first compound 0.1 µM) was 0.358. The relative viability ([1]; first compound 0.3162 µM) was 0.331, the relative viability ([1]; first compound 1 µM) was 0.25 and the relative viability ([2]; first compound 0.01 µM) was 0.494. For the same compound, the relative viability ([2]; first compound 0.03162 µM) was 0.594, the relative viability ([2]; first compound 0.1 µM) was 0.7 and the relative viability ([2]; first compound 0.3162 µM) was 0.556. It also gave a relative viability ([2]; first compound 1 µM) of 0.555, a relative viability ([3]; first compound 0.01 µM) of 0.322 and a relative viability ([3]; first compound 0.03162 µM) of 0.338. For the same compound, the relative viability ([3]; first compound 0.1 µM) was 0.326, the relative viability ([3]; first compound 0.3162 µM) was 0.292 and the relative viability ([3]; first compound 1 µM) was 0.247. For the same compound, the relative viability ([4]; first compound 0.01 µM) was 0.538, the relative viability ([4]; first compound 0.03162 µM) was 0.535 and the relative viability ([4]; first compound 0.1 µM) was 0.524. The relative viability ([4]; first compound 0.3162 µM) was 0.384, the relative viability ([4]; first compound 1 µM) was 0.293 and the relative viability ([5]; first compound 0.01 µM) was 0.656. It also gave a relative viability ([5]; first compound 0.03162 µM) of 0.815, a relative viability ([5]; first compound 0.1 µM) of 0.846 and a relative viability ([5]; first compound 0.3162 µM) of 0.675. The relative viability ([5]; first compound 1 µM) was 0.562, the relative viability ([6]; first compound 0.01 µM) was 0.471 and the relative viability ([6]; first compound 0.03162 µM) was 0.469. The relative viability ([6]; first compound 0.1 µM) was 0.406, the relative viability ([6]; first compound 0.3162 µM) was 0.397 and the relative viability ([6]; first compound 1 µM) was 0.241. For the same compound, the relative viability ([7]; first compound 0.01 µM) was 0.56, the relative viability ([7]; first compound 0.03162 µM) was 0.533 and the relative viability ([7]; first compound 0.1 µM) was 0.446. The relative viability ([7]; first compound 0.3162 µM) was 0.358, the relative viability ([7]; first compound 1 µM) was 0.228 and the relative viability ([8]; first compound 0.01 µM) was 0.546. For the same compound, the relative viability ([8]; first compound 0.03162 µM) was 0.555, the relative viability ([8]; first compound 0.1 µM) was 0.473 and the relative viability ([8]; first compound 0.3162 µM) was 0.489. It also gave a relative viability ([8]; first compound 1 µM) of 0.595, a relative viability ([9]; first compound 0.01 µM) of 0.628 and a relative viability ([9]; first compound 0.03162 µM) of 0.485. The relative viability ([9]; first compound 0.1 µM) was 0.482, the relative viability ([9]; first compound 0.3162 µM) was 0.481 and the relative viability ([9]; first compound 1 µM) was 0.34. For the same compound, the relative viability ([10]; first compound 0.01 µM) was 0.323, the relative viability ([10]; first compound 0.03162 µM) was 0.328 and the relative viability ([10]; first compound 0.1 µM) was 0.311. The relative viability ([10]; first compound 0.3162 µM) was 0.377, the relative viability ([10]; first compound 1 µM) was 0.431 and the relative viability ([11]; first compound 0.01 µM) was 0.486. For the same compound, the relative viability ([11]; first compound 0.03162 µM) was 0.365, the relative viability ([11]; first compound 0.1 µM) was 0.31 and the relative viability ([11]; first compound 0.3162 µM) was 0.353. For the same compound, the relative viability ([11]; first compound 1 µM) was 0.242, the relative viability ([12]; first compound 0.01 µM) was 0.581 and the relative viability ([12]; first compound 0.03162 µM) was 0.576. It also gave a relative viability ([12]; first compound 0.1 µM) of 0.574, a relative viability ([12]; first compound 0.3162 µM) of 0.542 and a relative viability ([12]; first compound 1 µM) of 0.527. For the same compound, the relative viability ([13]; first compound 0.01 µM) was 0.459, the relative viability ([13]; first compound 0.03162 µM) was 0.451 and the relative viability ([13]; first compound 0.1 µM) was 0.462. For the same compound, the relative viability ([13]; first compound 0.3162 µM) was 0.327, the relative viability ([13]; first compound 1 µM) was 0.276 and the relative viability ([14]; first compound 0.01 µM) was 0.527. It also gave a relative viability ([14]; first compound 0.03162 µM) of 0.448, a relative viability ([14]; first compound 0.1 µM) of 0.519 and a relative viability ([14]; first compound 0.3162 µM) of 0.514. The relative viability ([14]; first compound 1 µM) was 0.418, the relative viability ([15]; first compound 0.01 µM) was 0.774 and the relative viability ([15]; first compound 0.03162 µM) was 0.793. It also gave a relative viability ([15]; first compound 0.1 µM) of 0.779, a relative viability ([15]; first compound 0.3162 µM) of 0.705 and a relative viability ([15]; first compound 1 µM) of 0.448. It also gave a relative viability ([16]; first compound 0.01 µM) of 0.334, a relative viability ([16]; first compound 0.03162 µM) of 0.304 and a relative viability ([16]; first compound 0.1 µM) of 0.288. For the same compound, the relative viability ([16]; first compound 0.3162 µM) was 0.235, the relative viability ([16]; first compound 1 µM) was 0.194 and the relative viability ([17]; first compound 0.01 µM) was 0.648. The relative viability ([17]; first compound 0.03162 µM) was 0.629, the relative viability ([17]; first compound 0.1 µM) was 0.539 and the relative viability ([17]; first compound 0.3162 µM) was 0.617. For the same compound, the relative viability ([17]; first compound 1 µM) was 0.623, the relative viability ([18]; first compound 0.01 µM) was 0.328 and the relative viability ([18]; first compound 0.03162 µM) was 0.28. For the same compound, the relative viability ([18]; first compound 0.1 µM) was 0.253, the relative viability ([18]; first compound 0.3162 µM) was 0.216 and the relative viability ([18]; first compound 1 µM) was 0.219. It also gave a relative viability ([19]; first compound 0.01 µM) of 0.654, a relative viability ([19]; first compound 0.03162 µM) of 0.879 and a relative viability ([19]; first compound 0.1 µM) of 0.762. The relative viability ([19]; first compound 0.3162 µM) was 0.734, the relative viability ([19]; first compound 1 µM) was 0.49 and the relative viability ([20]; first compound 0.01 µM) was 0.603. The relative viability ([20]; first compound 0.03162 µM) was 0.407, the relative viability ([20]; first compound 0.1 µM) was 0.55 and the relative viability ([20]; first compound 0.3162 µM) was 0.589. For the same compound, the relative viability ([20]; first compound 1 µM) was 0.411, the relative viability ([21]; first compound 0.01 µM) was 0.405 and the relative viability ([21]; first compound 0.03162 µM) was 0.411. The relative viability ([21]; first compound 0.1 µM) was 0.487, the relative viability ([21]; first compound 0.3162 µM) was 0.454 and the relative viability ([21]; first compound 1 µM) was 0.389. The relative viability ([22]; first compound 0.01 µM) was 0.153, the relative viability ([22]; first compound 0.03162 µM) was 0.128 and the relative viability ([22]; first compound 0.1 µM) was 0.213. For the same compound, the relative viability ([22]; first compound 0.3162 µM) was 0.137 and the relative viability ([22]; first compound 1 µM) was 0.133.
